Laboratory results reported in US11299715B2, “Use of iNOS inhibitors to increase viral yield in culture” (priority 2013, dated 2022).

Assays:
wtHSV-1 McIntyre strain = wtHSV-1 McIntyre strain propagation in 293, HeLa and Vero cells with ATA; type: cell-based, HSV-1
Source text: The wtHSV-1 KOS strain and the ICP27-deficient derivatives of the wtHSV-1 KOS strain: vectors d27-1 (Rice and Knipe, J. Virol. (1990) 64:1704-1715), rHSV-rep2/cap2 and rHSV-EGFP (Kang et al., Gene Ther. (2009) 16:229-239) and their producer ICP27-complementing V27 cell line were obtained from AGTC (Alachua, Fla.). The wtHSV-1 MacIntyre strain, purchased from Advanced Biotechnologies Inc. (ABI, Columbia Md.) and wtHSV-1 KOS strain were propagated in Vero, 293 or HeLa cell lines. Infectious vector particles were harvested 72 hr postinfection by recovering culture supernatant. The titers of HSV-1 stocks in DNase resistant particles/ml (DRP/ml) were determined by Taqman assay. Viral genomes within crude culture medium were quantified via treatment in the presence of DNase I (50 U/ml final; Promega) at 37° C. for 60 min, followed by proteinase K (Invitrogen) digestion (1 U/ml) at 50° C. for 60 min, and then denatured at 95° C. for 30 min. Linearized plasmid pZero 195 UL36 (obtained from AGTC, Inc., Alachua, Fla.) was used to generate standard curves.
ATA (Sigma-A1895 Aurintricarboxylic acid practical grade, ≥85% (titration), powder) stock solution was generated as 500 μM concentration in 100 mM sodium bicarbonate water solution. ATA stock solution was further diluted in DMEM+/−10% fetal bovine serum (FBS, Hyclone, Waltham, Mass.) into concentration ranges of […] ATA (8.5-21 μgATA/ml). The HSV-1 infection at multiplicity of infection of 0.15 (MOI=0.15) (typically 6×10^5 cells in a 6-well plate) was performed in 40% (⅖ vol) of the total final media volume for 1-2 hrs and the remaining media (60% or ⅗ of the total final volume) was added during the dilution step. The cells were then incubated 72 hours and supernatant harvested to perform forming units per milliliter (PFU/ml) and DRP/ml titer assays.
Supernatants containing virus were harvested after three days as described above. […] Finally, ATA also appeared to inhibit both types of HSV-1 viruses in HeLa cells. Two-way ANOVA; Bonferroni test; −ATA vs. +ATA: ***: p<0.001, ns: p>0.05; n=4 independent experiments.
For statistical calculations, a larger study with a set of ten independent experiments (n=10) was conducted in 6-well plates with or without ATA added during the infection step (Step 1) comparing replication-deficient d27-GFP and also wtHSV-1 McIntyre strain in order to investigate, whether ATA could increase the titer in the wtHSV-1 strain as well (FIG. 4B). ATA was added at […] to confluent cell monolayers, V27 cells for d27-1 or 293 cells for wtHSV-1 McIntyre, during the infection step (Step 1) and the cells were infected with vectors at MOI=0.15 while ATA was diluted 1 hr later to a final […] concentration.
In order to illuminate the ATA mechanism of action by human genome array and the fact that Vero and V27 are monkey-derived cell lines, wtHSV-1 propagation was tested in several human cell lines (FIGS. 4A-4B). A propagation of two wild type HSV-1 (wtHSV-1) strains, KOS and McIntyre, were compared in three cell lines: human embryonic kidney 293 (293 cells), human cervical cancer HeLa cells and African green monkey kidney epithelial Vero cells. The experiments were carried out in 10% FBS-containing media following the ATA I protocol scheme, where 50 μM ATA was supplemented during the infection step and further diluted to 20 μM ATA concentration (see Material and Methods).

NOS3 = eNOS = experiment: Affymetrix Gen Array, NOS3 expression in 293 cells; type: cell-based, human; settings: probe 205581_s_at
Procedure: Confluent 293 cells (2.4×10^6 cells in a 75 cm^2 flask) were cultured in DMEM+10% FCS for approximately 20 hrs and were then infected with one plaque forming unit per cell (PFU/cell) of HSV-1 MacIntyre Strain for 90 min. ATA at a concentration 20 μM (final) was added 90 min post-infection. The infected cells were harvested at 24 h after infection. Total RNA of sufficient quality and quantity was isolated from suspension using RNeasy Plus Mini Kit (QIAGEN, Valencia, Calif.) according to the manufacturer's instructions. Whole genome expression profiling was performed on Affymetrix Human U133 Plus 2.0 Array by the Asuragen, Inc. 3 μg total RNA was provided as input material.
Overall, RNA quality assessed on the bioanalyzer had RIN values of >9. Array hybridization and scaling factors were within passing quality control range. After scanning, raw expression CEL files were processed with Affymetrix Expression Console vs.1.1.2 (affymetrix.com). Each CEL file was processed with Robust Multichip Analysis (RMA) and a summarized table was exported as a text file. All downstream genomics and statistical analyses were done with JMP Genomics (version 5) (jmp.com/software/genomics). First, a filtering step was applied to filter-out low expression, specifically, those values below 6 in log^2 mode in at least 2 out of 8 samples. […]

For `O=C(O)C1=CC(=C(c2ccc(O)c(C(=O)O)c2)c2ccc(O)c(C(=O)O)c2)C=CC1=O` [ATA, 5-((3-carboxy-4-hydroxyphenyl)(3-carboxy-4-oxo-2,5-cyclohexadien-1-ylidene)methyl)-2-hydroxybenzoic acid], the “wtHSV-1 McIntyre titers in 293 cells” value (wtHSV-1 McIntyre strain; 50 μM ATA at Step 1, 20 μM after Step 2, 293 cells) was “reached the highest titers”, the “propagation of HSV-1 McIntyre in HeLa cells” value (wtHSV-1 McIntyre strain; 50 μM ATA at Step 1, 20 μM after Step 2, HeLa cells) was “inhibit” and the “yield of wtHSV-1 McIntyre in Vero cells” value (wtHSV-1 McIntyre strain; 50 μM ATA at Step 1, 20 μM after Step 2, Vero cells, 10% FBS) was “increased”. For the same molecule, the “wtHSV-1 McIntyre virus titer in 293 cells” value (wtHSV-1 McIntyre strain; 50 μM ATA at infection, diluted to 20 μM, 10% FBS, n=4, without ATA 1.4×10^8) was 1.2×10^9 DRP/ml, the “increase of wtHSV-1 McIntyre titer after ATA addition” value (wtHSV-1 McIntyre strain; 293 cells, 6-well plates, n=10, ATA 50 μM at Step 1, final 20 μM, MOI 0.15) was 9.1 times and the “wtHSV-1 McIntyre titer after ATA addition” value (wtHSV-1 McIntyre strain; 293 cells, n=10, ATA 50 μM at Step 1, final 20 μM, without ATA 3.3×10^8) was 1.0×10^9 DRP/ml. The “293 or Vero titers with ATA, McIntyre” value (wtHSV-1 McIntyre strain; summary statement) was “up to 1×10^9 DRP/ml”, the “increase of wt HSV-1 McIntyre yields” value (wtHSV-1 McIntyre strain; summary statement) was 1 log and the “NOS3 expression, ATA” value (NOS3 = eNOS; ATA alone) was 1.24. The “NOS3 expression, HSV + ATA” value (NOS3 = eNOS; HSV + ATA, HSV alone 2.45) was 1.94.
